Where two headings read alike, the source gives them in different places.
System: human PASMCs from PAH patients
Experiment: Cell proliferation assay (MTS), serum-induced growth
Type: cell-based
Conditions: for Emax: read-out: Emax (% Inhibition); for times more potent than ralinepag alone: individual fits (Table 1)

O=C(O)COC[C@H]1CC[C@H](COC(=O)N(c2ccccc2)c2ccc(Cl)cc2)CC1 [ralinepag, 2-(((1r,4r)-4-(((4-chlorophenyl)(phenyl)carbamoyloxy)methyl)cyclohexyl)methoxy)acetic acid]
inhibition at 0.001 µM (Homo sapiens, PASMC, 1 nM ralinepag in the presence of 100 nM sildenafil): 27% | inhibition at 0.01 µM (Homo sapiens, PASMC, 10 nM ralinepag combined with 100 nM riociguat): 45% | inhibition at 10 µM (Homo sapiens, PASMC, 10 μM ralinepag in the presence of 100 nM sildenafil): 56% | inhibition at 10 µM (Homo sapiens, PASMC, 10 μM ralinepag in the presence of 100 nM treprostinil): 69% | EC50 (Homo sapiens, PASMC, 96 h, log EC50 printed with negative sign, ralinepag alone or + 100 nM drug, from individual fits, 9% FBS + 0.1% DMSO, 4 days, read-out: Log EC50 (n = 5) (converted)): 25.1 nM | EC50 (Homo sapiens, PASMC, 96 h, log EC50 printed with negative sign, ralinepag alone or + 100 nM drug, from mean fits, 9% FBS + 0.1% DMSO, 4 days, read-out: Log EC50 (n = 5) (converted)): 44.7 nM | Emax (Homo sapiens, PASMC, 96 h, ralinepag alone or + 100 nM drug, from individual fits, 9% FBS + 0.1% DMSO, 4 days): 58.2 ± 4.1% | EC50 (Homo sapiens, PASMC, 96 h, ralinepag alone or + 100 nM drug, from mean fits, 9% FBS + 0.1% DMSO, 4 days, read-out: EC50): 44 nM | Emax (Homo sapiens, PASMC, 96 h, ralinepag alone or + 100 nM drug, from mean fits, 9% FBS + 0.1% DMSO, 4 days): 59.6 ± 17.3% | EC50 (Homo sapiens, PASMC, ralinepag in the presence of 100 nM sildenafil, individual fits, read-out: EC50): 5 nM | dose of ralinepag at which cell proliferation was inhibited (combined with 100 nM macitentan): 0.1 nM | dose of ralinepag at which significant inhibition of cell growth occurred (combined with 100 nM treprostinil): 0.1 nM | fold lower dose of ralinepag giving significant inhibition of cell growth (combined with 100 nM treprostinil vs ralinepag alone): 10 fold | antiproliferative effect compared to ralinepag alone (in the presence of 100 nM bosentan, mean data): not more effective | antiproliferative effect compared to ralinepag alone (in the presence of 100 nM macitentan, mean data): not significantly more effective | fold lower dose of ralinepag giving significant inhibition of cell growth (in the presence of 100 nM riociguat vs ralinepag alone): 100 fold | antiproliferative effect compared to ralinepag alone (in the presence of 100 nM riociguat, 0.01-10,000 nM ralinepag, mean data): significantly more effective at 10 nM and above | times more potent than ralinepag alone (in the presence of 100 nM riociguat): ~2.5 times | potency enhancement (in the presence of 100 nM riociguat, mean fits (Table 2)): 8 fold | antiproliferative effect compared to ralinepag alone (in the presence of 100 nM sildenafil, 0.01-10,000 nM ralinepag): significantly (P<0.001, two-way ANOVA) more effective | times more potent than ralinepag alone (in the presence of 100 nM sildenafil): ~5 times | maximum response compared to ralinepag alone (in the presence of riociguat or treprostinil (100 nM)): significantly greater maximum response | concentration at which ralinepag started to significantly inhibit cell proliferation (ralinepag alone, not lowered by 100 nM bosentan): InM

— patent US12377067B2, “Methods of treating PAH with combinations of ralinepag and other agents” (Arena Pharmaceuticals, Inc., priority 2016, dated 2025)
